Key:
[1] = system: cuts through the endermal skin layer; experiment: FibroPOSS treatment of cuts in a human arm; assay type: in vivo
Protocol: Based upon the differentiation from Example 1, a series of in vivo FibroPOSS examinations was made using [(isoOctylSiO1.5)4(isoOctyl(OH)SiO1.0)3]Σ7 and [([…])8]Σ8. In a human arm a series of six cuts were made through the endermal skin layer.
The top two cuts were treated with 100% [(isoOctylSiO1.5)4(isoOctyl(OH)SiO1.0)3]Σ7(SO1455) and [(isoOctylSiO1.5)8]Σ8 (MS0805).
The middle two cuts had 50/50 SO1450+bactin antibiotic and 50/50 MS0805+bactin antibiotic.
The bottom left cuts had 100% bactin antibiotic and the bottom right cut had no treatment.

fibroblasts = experiment: Fibroblast adhesion on POSS-coated titanium; assay type: cell-based; conditions: from Table 2 findings
Protocol: (§1) [(RSiO1.5)4(Rl(OH)SiO1.0)3]Σ7 (1 g) was dissolved in dichlormethane and sprayed onto metallic titanium samples. The samples were then dried at 110° C. for 2 hours.
(§2) Experimental samples with 50% surface coverage of POSS were exposed to osteoblasts and fibroblasts cultured in Dulbecco's modified eagle medium (DMEM), supplemented with 10% fetal bovine serum (FBS) and 1% penicillin streptomycin (P/S), under standard cell culture conditions (sterile chamber maintained at 37° C. and a humidified environment: 5% CO2/95% air). The stock solutions were supplied by HyClone.
(§3) For this purpose, osteoblasts, and fibroblasts were separately seeded (10,000 cells cm^2) onto the experimental titanium substrate, and were allowed to adhere in standard cell culture conditions for 48 hours. After the prescribed time period, substrates were rinsed three times using phosphate-buffered saline (PBS) to remove non-adherent cells. The adhered cells were fixed with formaldehyde (Fisher), stained with Hoechst 33 258 dye (Sigma), and counted using fluorescence microscopy (365 nm excitation and 400 nm emission wavelengths). The findings in Table 2 indicate a clear differentiation in binding a cellular modulation relative to the type of R group present on the cage.
(§4) All experiments were run in triplicate, and repeated three different times.

[2] = Dispersion of POSS compounds in personal care and cosmetic products; assay type: physicochemical; conditions: approximately 5% POSS by weight
Protocol: In light of the observed cellular differentiation and modulation promoted by nanostructured chemicals, a series of POSS, POS and POMS were added to conventional personal care and cosmetic products. […] A summary of the products and finding is listed below.
Each sample prepared consisted of approximately 5% of POSS by weight and was inspected visually and by biometric techniques for the dispersion of the POSS compound. The products in which the POSS compounds could be dispersed without being felt are listed under the POSS compounds studied.

osteoblasts = experiment: Osteoblast adhesion on POSS-coated titanium; assay type: cell-based; conditions: from Table 2 findings
Protocol: as §1, §2, §3, §4

bone = experiment: Bone formation in vitro (OsteoPOSS); assay type: cell-based; conditions: FIG. 6
rat calvaria bone defect = experiment: POSS-bone samples implanted in vivo into rat calvaria as a bone defect; conditions: eight POSS-bone samples 5 mm in length; examined after one month

Fibroblast binding preference by R group on the cage (fibroblasts)	Observation on product after POSS addition ([2]; Dial Antibacterial Hand Soap)	Observation on product after POSS addition ([2]; Isoplus Styling Gel)	Observation on product after POSS addition ([2]; Ivory Hand Soap)	Observation on product after POSS addition ([2]; Right Guard Deodorant)	Observation on product after POSS addition ([2]; Suave Shampoo)	Osteoblast binding preference by R group on the cage (osteoblasts)	Compound	Bleeding of cut after treatment [1]	Clotting of cut after treatment [1]	Bone formation in vitro (bone)	Appearance of bone implantation site (rat calvaria bone defect)
–	–	–	–	–	–	–	[(isoOctylSiO1.5)8]Σ8 [MS0805]	did not show any bleeding	nor was visible clotting observed	–	–
fibroplasts preferred	remained clear	became thicker	remained clear	became thicker	remained clear	–	[(isoOctylSiO1.5)4(isoOctyl(OH)SiO1.0)3]Σ7 [SO1455]	did not show any bleeding	nor was visible clotting observed	–	–
–	–	–	–	–	–	osteoblast exhibited a preference	O[Si]1(c2ccccc2)O[Si]2(c3ccccc3)O[Si](O)(c3ccccc3)O[Si]3(c4ccccc4)O[Si](O)(c4ccccc4)O[Si](c4ccccc4)(O1)O[Si](c1ccccc1)(O2)O3 (stereo not shown) [[(phenylSiO1.5)4(phenyl(OH)SiO1.0)3]Σ7]	–	–	form bone in vitro	indistinguishable from normal rat bone

From patent publication US7572872B2, “Biomimetic materials comprising polyhedral oligomeric silsesquioxanes” (priority 2005, dated 2009)
